According to patent publication US20240053345A1, “POLYPEPTIDES BINDING SELECTIVELY HEPARIN OR HEPARAN SULFATE GLYCOSAMINOGLYCANS AND CELL-PENETRATING POLYPEPTIDES COMPRISING THE SAME” (SORBONNE UNIVERSITE, priority 2020, published 2024):
Where a SMILES comes first, the peptide text is derived from it. The star is where a group is joined. Biotin = O=C1N[C@H]2[C@H](CS[C@H]2CCCCC(=O)*)N1

How the values were obtained:
CHO-745 cells = assay: Internalization of peptides in GAGs-deficient cells with exogenous GAGs, quantified by MS; format: cell-based, Chinese Hamster; details: for cellular quantity of internalized peptide: 7.5 μM peptide
Experimental: (§1) FIG. 3: Quantification of internalization of chimeric peptides P1, P3 and P5 in cells CHO-745 (a,b) and in CaOV-3 cells (c,d). Peptides were incubated with cells for 1 h along with heparin (a) or chondroitin sulfate-E (b). P1 was also incubated with CaOV-3 for 1 h along with heparin (c) and P3 incubated with CaOV-3 in the presence of CS-E (d) at different concentrations. Experiments were done in duplicate or triplicate and repeated at least three times independently.
FIG. 5: The effect of heparin favoring P1 internalization can be reversed by addition of heparinase in […].
(§2) Wild type Chinese Hamster Ovary (CHO-K1) cells and GAGs-deficient mutant CHO-745 cells which lack the xylosyltransferase needed for glycosaminoglycan (GAG) synthesis were grown in Dulbecco's modified Eagle's medium F-12 (DMEMF-12) with L-glutamine and 15 mM HEPES. HEK cells and HeLa cells were grown in DMEM with 4.5 g/L D-glucose and pyruvate. Two types of human ovarian cancer cell lines CaOV-3 and SKOV-3 were cultured in DMEM with Glutamax and McCoy's 5A medium, respectively. All complete culture medium was supplemented with 10% fetal bovine serum, penicillin (100,000 IU/L), streptomycin (100 mg/L). Cells were grown in a humidified atmosphere at 37° C. and 5% CO2.
(§3) Tested Peptides were incubated separately in the following two ovarian cell types: CHO-745 and CaOV-3. The inventors incubated (7.5 μM) peptides with cells lines for 1 h along with exogenous heparin (HI) or chondroitin-4,6-sulfate (CSE) and quantified the internalized peptides by MS.
P1 was incubated in the CHO-745 ovarian cell type with different concentrations of heparinase. Cells culture are similar to the example 1.

CaOV-3 cells = assay: Internalization of peptides in CaOV-3 cells; format: cell-based, human; details: for internalization efficacy in CaOV-3 compared to CHO-K1 / intracellular concentration of internalized peptide: 1 h at 37° C.; for intracellular concentration of internalized peptide: 1 pmol in 1 million cells taken as 1 μM (1 pL/cell)
Experimental: (§4) FIG. 2: Quantification of the internalization of peptides, studied in GAGs-deficient cells CHO-745 (white bar), wild type cells CHO-K1 (light grey bar) and two ovarian adenocarcinoma cells CaOV-3 (dark grey bar) and SKOV-3 (black bar) after 1 h incubation at 37° C. Experiments were done in duplicate or triplicate and repeated at least three times independently. Significance was tested using a student's t-test (NS:p>0.05, *0.05>p>0.01, **0.01>p>0.001, ***0.001>p).
as §1
(§5) Peptides listed in Table 1 were incubated separately in the following four ovarian cell types which have different GAGs types and expression levels: wild type CHO-K1 (expressing heparan sulfate (HS), chondroitin sulfate A (CSA) and C (CSC)), CHO-pgs A475 (CHO-745) (genetically modified to express only 5-10% HS and CS), two human ovarian adenocarcinoma cells CaOV-3 (overexpressing HS and CSE) and SKOV-3 (overexpressing CSE). Peptides were incubated with one million cells at 37° C. for 1 h.
as §2, §3

[1] = system: CHO-745, CHO-K1, CaOV-3 and SKOV-3 cells; assay: Quantification of internalization of peptides in four cell lines; format: cell-based; details: CHO-K1 or the two ovarian cancer cells (CaOV-3, SKOV-3) vs CHO-745; 1 h incubation at 37° C.
Experimental: as §4, §5, §2

SKOV-3 cells = assay: Internalization of peptides in SKOV-3 cells, also after sodium chlorate or GAG-specific enzyme pre-treatment; format: cell-based, human; details: for cellular uptake in SKOV-3 compared to CHO-K1: 1 h at 37° C.; for internalization after chondroitinase ABC (ChABC) treatment: enzyme pre-treatment 2 h; for internalization after heparinases cocktail treatment: heparinases I, II and III pre-treatment 2 h
Experimental: as §4
FIG. 4: Quantification of P3 after SKOV-3 pre-treatment with sodium chlorate for 24 h or GAG-specific enzymes for 2 h (a) and P1 after SKOV-3 pre-treatment with GAG-specific enzymes for 2 h (b). Experiments were done in duplicate or triplicate and repeated at least three times independently. Significance was tested using a student's t-test (NS:p>0.05, *0.05>p>0.01, **0.01>p>0.001, ***0.001>p).
as §5, §2
Tested Peptides were incubated separately in the following ovarian cell type: SKOV-3. A pre-treatment with sodium chlorate for 24 h or GAG-specific enzymes for 2 h.
The inventors used different concentrations of chlorate to treat SKOV-3 and analyzed the internalization of P3. […] The inventors also checked that there is no cytotoxicity generated by 100 mM concentration of NaClO3. […] Not merely impairment of sulfation leads to significant P3 internalization decline, enzymatic GAGs degradation might also impact on peptide internalization. They used two specific enzymes: one is the blend of heparinases I, II and III that are extracted from Flavobacterium heparinum and hydrolyze the glycosidic bonds of glucosamine and uronic acids; the other one is chondroitinase ABC (ChABC) lyase purified from Proteus Vulgaris that specifically catalyzes the degradation of chondroitin 4-sulfate, chondroitin 6-sulfate containing (1-4)-β-D-hexosaminyl and (1-3)-β-D-glucuronosyl or (1-3)-α-L-iduronosyl linkages to disaccharides containing 4-deoxy-β-D-gluc-4-enuronosyl groups.

[2] = Binding to chondroitin sulfate-E
blood cells = assay: Hemolysis; format: cell-based; details: even at 50 μM for 2 h
Experimental: (§6) The inventors tested cytotoxicity and hemolysis activity of the peptides incubated with CHO-K1 cells at different concentrations.

[3] = co-incubation with 7.2 μg/ml CSE, 1 h
[4] = co-incubation with 7.2 μg/ml HI, 1 h

Experimental for CHO-K1 cells: as §6

Row | Molecule | cellular quantity of internalized peptide (CHO-745 cells; [3]) | cellular quantity of internalized peptide (CHO-745 cells; [4]) | internalization efficacy in CaOV-3 compared to CHO-K1 (CaOV-3 cells) | intracellular concentration of internalized peptide (CaOV-3 cells; CaOV-3) [µM] | internalization compared with CHO-745 cells [1] | cellular uptake in SKOV-3 compared to CHO-K1 (SKOV-3 cells) | effect of CSE addition on internalization (CHO-745 cells; exogenous CSE, 1 h) | effect of degradation fragments of HI on internalization (CHO-745 cells; heparin degraded by heparinase) | effect of intact HI on internalization (CHO-745 cells; intact heparin) | effect of HI on relative internalization (CaOV-3 cells; CaOV-3, exogenous heparin, 1 h) | cytotoxicity (CHO-K1 cells) | binding to CSE [2] | hemolysis of blood cells (blood cells) | internalization after chondroitinase ABC (ChABC) treatment (SKOV-3 cells; SKOV-3) | internalization after heparinases cocktail treatment (SKOV-3 cells; SKOV-3) | effect of CSE addition on internalization (CaOV-3 cells; CaOV-3, CSE 7.2 μg/ml, 1 h) | effect of CSE addition on internalization (CaOV-3 cells; CaOV-3, CSE concentrations below 3.6 μg/ml, 1 h) | internalization efficacy after sodium chlorate pre-treatment (SKOV-3 cells; SKOV-3, sodium chlorate 24 h, concentration-dependent)
1 | Biotin-GGGG-KEDKRPRTAFTAEQL SQIKIWFQNKRAKIKK-NH2 [P5] | 2.2 pmol | ~22 pmol | increased their internalization efficacy | 7 | entered significantly more | apparently increased their cellular uptake |  |  |  |  |  |  |  |  |  |  |  | 
2 | CC[C@H](C)[C@H](NC(=O)[C@H](CCCCN)NC(=O)[C@H](C)NC(=O)[C@H](CCCNC(=N)N)NC(=O)[C@H](CCCCN)NC(=O)[C@H](CC(N)=O)NC(=O)[C@H](CCC(N)=O)NC(=O)[C@H](Cc1ccccc1)NC(=O)[C@H](Cc1c[nH]c2ccccc12)NC(=O)[C@@H](NC(=O)[C@H](CCCCN)NC(=O)[C@@H](NC(=O)[C@H](CCC(N)=O)NC(=O)[C@H](CO)NC(=O)[C@H](CCCNC(=N)N)NC(=O)[C@@H]1CCCN1C(=O)[C@H](CCCNC(=N)N)NC(=O)[C@H](CCCCN)NC(=O)[C@H](CC(=O)O)NC(=O)[C@H](CCC(=O)O)NC(=O)[C@H](CCCCN)NC(=O)[C@H](CC(N)=O)NC(=O)[C@@H]1CCCN1C(=O)[C@H](CC(N)=O)NC(=O)[C@H](CCCCN)NC(=O)[C@H](CCCCN)NC(=O)[C@H](CCCCN)NC(=O)[C@@H]1CCCN1C(=O)[C@H](CCCCN)NC(=O)[C@H](CCCNC(=N)N)NC(=O)[C@H](CO)NC(=O)[C@H](CCCNC(=N)N)NC(=O)CNC(=O)CNC(=O)CNC(=O)CNC(=O)CNC(=O)CCCC[C@@H]1SC[C@@H]2NC(=O)N[C@@H]21)[C@@H](C)CC)[C@@H](C)CC)C(=O)N[C@@H](CCCCN)C(=O)N[C@@H](CCCCN)C(N)=O [P1, Biotin-G5-RSRKPKKKNPNKEDKRPR SQIKIWFQNKRAKIKK-NH2] (Biotin-GGGGGRSRKPKKKNPNKEDKRPRSQIKIWFQNKRAKIKK-NH2) |  | around 21 pmol | increased their internalization efficacy | 7 | entered significantly more |  | made no effect | lost the ability | promoted P1 internalization | favorable effect | not Cytotoxic | high binding affinity | no hemolysis | decrease | decrease |  |  | 
3 | SQIKIWFQNKRAKIKK [En2H3, Ac-SQIKIWFQNKRAKIKK-NH2] |  |  | increased their internalization efficacy | 7 | entered significantly more |  |  |  |  |  |  |  |  |  |  |  |  | 
4 | CC[C@H](C)[C@H](NC(=O)[C@H](CCCCN)NC(=O)[C@H](C)NC(=O)[C@H](CCCNC(=N)N)NC(=O)[C@H](CCCCN)NC(=O)[C@H](CC(N)=O)NC(=O)[C@H](CCC(N)=O)NC(=O)[C@H](Cc1ccccc1)NC(=O)[C@H](Cc1c[nH]c2ccccc12)NC(=O)[C@@H](NC(=O)[C@H](CCCCN)NC(=O)[C@@H](NC(=O)[C@H](CCC(N)=O)NC(=O)[C@H](CO)NC(=O)[C@H](CC(C)C)NC(=O)[C@H](CCC(N)=O)NC(=O)[C@H](C)NC(=O)[C@H](CCCNC(=N)N)NC(=O)[C@@H](NC(=O)[C@H](Cc1ccccc1)NC(=O)[C@@H](NC(=O)[C@@H](NC(=O)[C@H](CCCNC(=N)N)NC(=O)[C@H](CCC(=O)O)NC(=O)[C@H](CCCNC(=N)N)NC(=O)[C@H](CCCNC(=N)N)NC(=O)[C@H](CCC(N)=O)NC(=O)[C@H](CCCCN)NC(=O)[C@H](CCCNC(=N)N)NC(=O)CNC(=O)CNC(=O)CNC(=O)CNC(=O)CNC(=O)CCCC[C@@H]1SC[C@@H]2NC(=O)N[C@@H]21)[C@@H](C)O)[C@@H](C)O)[C@@H](C)O)[C@@H](C)CC)[C@@H](C)CC)C(=O)N[C@@H](CCCCN)C(=O)N[C@@H](CCCCN)C(N)=O [P3, Biotin-G5-RKQRRERTTFTRAQL SQIKIWFQNKRAKIKK-NH2] (Biotin-GGGGGRKQRRERTTFTRAQLSQIKIWFQNKRAKIKK-NH2) | around 6.5 pmol | ~28 pmol | increased their internalization efficacy | 24 | entered significantly more | apparently increased their cellular uptake |  |  |  |  | not Cytotoxic |  | no hemolysis | significantly curtailed internalization | almost no difference | evokes P3 internalization | inhibited P3 internalization | dramatically reduced
